Values quoted from earlier work, collected in patent publication US12318470B2, “Agent for dyeing keratinuos material, comprising aminosilicone, a chromophoric compound and an addition product of C1-C6 alkylene oxide(s) to the esters of fatty acids and aromatic alcohols” (Henkel AG & Co. KGaA, priority 2020, dated 2025).

What was measured:
[1] = 5% solution in water
[2] = 25° C.

Compound | solubility in water [2] | also measured
O=P([O-])(O)O.[K+] [Potassium dihydrogen phosphate] |  | pH value of solution in water [1]: 4.4
O=C([O-])c1c(Cl)c(Cl)c(Cl)c(Cl)c1-c1c2c(Br)cc(=O)c(Br)c-2oc2c(Br)c(O)cc(Br)c12.O=C([O-])c1c(Cl)c(Cl)c(Cl)c(Cl)c1-c1c2c(Br)cc(=O)c(Br)c-2oc2c(Br)c(O)cc(Br)c12.[Na+].[Na+] [Acid Red 92, disodium salt of 3,4,5,6-tetrachloro-2-(1,4,5,8-tetrabromo-6-hydroxy-3-oxoxanthen-9-yl)benzoic acid] | greater than 10 g/L | 
O=C([O-])C1=NN(c2ccc(S(=O)(=O)[O-])cc2)C(=O)C1N=Nc1ccc(S(=O)(=O)[O-])cc1.[Na+].[Na+].[Na+] (centres unmarked) [Acid Yellow 23, trisodium salt of 4,5-dihydro-5-oxo-1-(4-sulfophenyl)-4-((4-sulfophenyl)azo)-1H-pyrazole-3-carboxylic acid] |  | solubility in water (in words) [2]: readily soluble
Nc1cc(S(=O)(=O)[O-])cc2cc(S(=O)(=O)[O-])c(N=Nc3ccccc3)c(O)c12.[Na+].[Na+] [Acid Red 33, diantrium salt of 5-amino-4-hydroxy-3-(phenylazo)-naphthalene-2,7-disulphonate] | 2500 µg/mL | 
O=S(=O)([O-])c1ccc(N=Nc2c(O)ccc3ccccc23)cc1.[Na+] [Acid Orange 7, sodium salt of 4-[(2-hydroxy-1-naphthyl)azo]benzene sulphonate] | more than 7 g/L | 
